Measured values as given in patent publication US10729695B2, “Amino, amido and heterocyclic compounds as modulators of RAGE activity and uses thereof” (The Research Foundation for the State University of New York, priority 2013, dated 2020).

Columns and labels:
RAGE tail = RAGE tail (Homo sapiens (Human), UniProt Q15109); assay: RAGE tail fluorescence titration (Kd determination); conditions: binding to RAGE tail
Method: Binding affinities of small molecules for either CT-RAGE or FH1 are determined by performing fluorescence titrations to generate binding isotherms and standard SPR experiments.
A number of representative amino and amido compounds of this invention were or can be tested for their inhibitory activity.
(§1) Fluorescence quenching was used to determine binding.
A number of representative heterocylic compounds of this invention were or can be tested for their inhibitory activity.
as §1, §1

[1] = system: primary murine aortic smooth muscle cells; assay: Murine smooth muscle cell migration (scratch wound, CML AGE); format: cell-based, C57BL/6 mice; conditions: 1 μM pre-treatment 1.5 hours, CML AGE 100 μg/ml, 7 hrs
Method: Effects of CB-1 to CB-14 on Murine Smooth Muscle Cell Migration. Primary murine aortic smooth muscles retrieved from wild type C57BL/6 mice were grown to 90% confluency in medium containing 10% fetal bovine serum. Cells were serum starved for 16 hrs during which time fetal bovine serum was replaced with 0.1% bovine serum albumin. Following this period of serum starvation, cells were pre-treated for 1.5 hours with the indicated Chembridge library hit denoted #1-14 at a concentration of 1 μM. At the end of that time, compounds were removed and cell monolayers were vertically scratched with a pipet tip to create a “wound” and then RAGE ligand carboxy methyl lysine human serum albumin (CML AGE), 100 μg/ml, was added for 7 hrs. Photographs of the monolayer were taken at time 0 (time of scratch/CML AGE) and at 7 hrs. The ingrowth of the cells was then noted and % area ingrowth was calculated comparing ingrowth at baseline to that at 7 hrs. N=triplicate experiments. * indicates p<0.05

[2] = system: primary human aortic smooth muscle cells; assay: Human smooth muscle cell migration (scratch wound, CML AGE); format: cell-based; conditions: 1 μM pre-treatment 1.5 hours, CML AGE 100 μg/ml, 7 hrs
Method: Effects of CB-1 to CB-14 on Human Smooth Muscle Cell Migration. Primary human aortic smooth muscles were purchased from Lonza and were grown to 90% confluency in medium containing 10% fetal bovine serum. Cells were serum starved for 16 hrs during which time fetal bovine serum was replaced with 0.1% bovine serum albumin. Following this period of serum starvation, cells were pre-treated for 1.5 hours with the indicated Chembridge library hit denoted #1-14 at a concentration of 1 μM. At the end of that time, compounds were removed and cell monolayers were vertically scratched with a pipet tip to create a “wound” and then RAGE ligand carboxy methyl lysine human serum albumin (CML AGE), 100 μg/ml, was added for 7 hrs. Photographs of the monolayer were taken at time 0 (time of scratch/CML AGE) and at 7 hrs. The ingrowth of the cells was then noted and % area ingrowth was calculated comparing ingrowth at baseline to that at 7 hrs. N=triplicate experiments. * indicates p<0.05 (FIG. 8)

[3] = system: delayed type hypersensitivity (DTH) mediated inflammation in mice; assay: In vivo model of delayed type hypersensitivity (DTH), paw inflammation score; parameters: species or system CF-1 mice; conditions: 5 mg/kg intraperitoneal, four doses; for Inflammation Score Compound ± SEM: paw scored 16 hrs after mBSA, scale 1-5, n=5 mice/group; for reduction in inflammation score in the paw compared to vehicle: vs DMSO vehicle
Method: Effects of CB Compounds 1-14 on an in vivo model of delayed type hypersensitivity (DTH). Female CF-1 mice were purchased from the Jackson Laboratories (Bar Harbor Me.) and after a period of at least 3 days acclimation in the animal facility, mice were sensitized over the left inguinal lymph node with an emulsion (0.1 ml) containing methylated bovine serum albumin (mBSA, Sigma, 25 mg/ml), NaCl (0.9%), dextran 5-40×10^6 MW; 50 mg/ml (Sigma), and Freunds' incomplete adjuvant (50%). On day 19 and 20 after sensitization, mice received an intraperitoneal dose of one of CB compounds 1-14 at 5 mg/kg/body weight mouse for a total of four doses. Control animals received equal volumes of compound diluent, DMSO. Immediately following the final compound injection (4th dose), mBSA (0.4 mg/ml; 0.050 ml) was injected into the left plantar hind paw. The paw was scored 16 hrs later by 2 investigators naive to the experimental condition and according to the following criteria: 1=absence of any inflammation; 2=slight rubor and edema; 3=moderate rubor and edema with skin wrinkles; 4=severe rubor and edema without skin wrinkles and 5=severe rubor and edema with toe spreading. See also Hofmann et al. (1999, Cell 97:889-901), the entire content of which is incorporated herein in its entirety. In these experiments, n=5 mice/group.

[4] = biological target: RAGE tail (ctRAGE) binding to mDial (Homo sapiens (Human), UniProt Q15109); assay: Primary screen: binding of GFP RAGE tail to mDial at one concentration (10 uM); conditions: 10 μM compound
RAGE tail (ctRAGE) binding to mDial, sequence (Q15109 364-404): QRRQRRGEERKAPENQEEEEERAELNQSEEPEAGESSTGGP
Method: Primary screening was a two-step process in which compounds were first tested in a high throughput assay at one concentration (10 uM). Compounds that reduced binding of RAGE tail (ctRAGE) by at least 50% were then selected and subjected to 4-point dose response (10 uM, 1 uM, 0.1 uM and 0.01 uM) (FIGS. 1, 4, and 5).
Step 1. Add 50 μl anti-mDial (1:160 dilution in 0.1M NaHCO3 pH 9.6)/well. Incubate overnight at 4° C.
Step 2. Use the plate washer to aspirate anti-mDial and wash plates 4× with PBS 100 μl per well per wash.
Step 3. Add 180 μl 3% BSA in 1×PBS. Incubate for 1.5 hrs at room temperature
Step 4. Use the plate washer to aspirate the blocking solution and wash 5× with PBS 300 μl per well.
Step 5. Add 50 μl of mDial containing lysate (85 μg) and incubate at RT for 3 hours.
Step 6. Aspirate the lysate and wash the plate 5× (100 μl) on the plate washer.
Step 7. Add 25 μl PBS to the wells.
Step 8. Add 0.5 μL compound per well.
Step 9. Add 24.5 μL GFP RAGE tail (125 nM) into each well for 2 hrs at room temperature.
Step 10. Aspirate and wash 5× with PBS (100 μL) on the plate washer.
Step 11. Add 100 ul PBS in each well.
Step 12. Detection: Read on fluorescence plate reader excitation 435 nm and 485 nm emission
Compounds that blocked the binding of RAGE tail to mDial by 50% or more were subjected to 4 point dose response: 10 μM, 1 μM, 0.1 μM and 0.01 μM.

RAGE tail, sequence (Q15109 364-404): as above

SMILES	Kd (RAGE tail)	RAGE ligand CML AGE-mediated ingrowth (migration) [1]	RAGE ligand CML AGE-mediated ingrowth (migration) [2]	Inflammation Score Compound ± SEM [3]	reduction in inflammation score in the paw compared to vehicle [3]	inhibition at 10 µM [4]
COc1cc(SC)ccc1C(=O)Nc1cccc(C)n1 [CB-1]	4 ± 1 nM	no inhibitory effect	no inhibitory effect	3.4 ± 0.55/3.4 ± 0.55		
C=CCOc1ccc2c(C(F)(F)F)cc(=O)oc2c1 [CB-2]	6.5 ± 1 nM	prevent RAGE ligand CML AGE-mediated ingrowth (migration)	prevent RAGE ligand CML AGE-mediated ingrowth (migration)	3.2 ± 0.45/3.4 ± 0.55		
Cc1nc2ccccc2n1CC(O)Cn1c2ccccc2c2ccccc21 (stereo not shown) [CB-3]	18 ± 1 nM	prevent RAGE ligand CML AGE-mediated ingrowth (migration)	prevent RAGE ligand CML AGE-mediated ingrowth (migration)	2.2 ± 0.45/3.4 ± 0.55	statistically significant reduction in inflammation score	
OC(Cn1ccc2ccccc21)Cn1cnc2ccccc21 (stereo not shown) [CB-4]	2 ± 1 nM	prevent RAGE ligand CML AGE-mediated ingrowth (migration)	prevent RAGE ligand CML AGE-mediated ingrowth (migration)	3.0 ± 0.71/3.4 ± 0.55		
Oc1cccc(Nc2nc(-c3ccc(F)cc3F)cs2)c1 [CB-5]		prevent RAGE ligand CML AGE-mediated ingrowth (migration)	prevent RAGE ligand CML AGE-mediated ingrowth (migration)	3.6 ± 0.55/3.4 ± 0.55		
COc1cc(NC(C)=O)c(Cl)cc1C(=O)Nc1nccs1 [CB-6]		prevent RAGE ligand CML AGE-mediated ingrowth (migration)	prevent RAGE ligand CML AGE-mediated ingrowth (migration)	3.0 ± 0.71/3.6 ± 0.55		
COc1ccccc1-c1cc(C(F)(F)F)nc(N2CCOCC2)n1 [CB-7]	0.55 ± 0.05 nM	prevent RAGE ligand CML AGE-mediated ingrowth (migration)	prevent RAGE ligand CML AGE-mediated ingrowth (migration)	3.4 ± 0.55/3.6 ± 0.55		
COC(=O)c1cc(OC)c(OC)cc1NC(=O)C1Oc2ccccc2OC1C (stereo not shown) [CB-8]	2 ± 0.5 nM	prevent RAGE ligand CML AGE-mediated ingrowth (migration)	prevent RAGE ligand CML AGE-mediated ingrowth (migration)	3.4 ± 0.55/3.6 ± 0.55		
Cc1ccc(S(=O)(=O)N(C)C(F)F)cc1 [CB-9]	17300 ± 500 nM	prevent RAGE ligand CML AGE-mediated ingrowth (migration)	prevent RAGE ligand CML AGE-mediated ingrowth (migration)	3.6 ± 0.55/3.6 ± 0.55		
CC1=NN(c2nc3ccccc3[nH]2)C(=O)C1CCC(C)C (stereo not shown) [CB-10]		prevent RAGE ligand CML AGE-mediated ingrowth (migration)	prevent RAGE ligand CML AGE-mediated ingrowth (migration)	3.2 ± 0.84/3.6 ± 0.55		
Cc1cc2n(c1)CCn1c(C)ccc1-2 [CB-11]	1.2 ± 0.5 nM	prevent RAGE ligand CML AGE-mediated ingrowth (migration)	prevent RAGE ligand CML AGE-mediated ingrowth (migration)	3.2 ± 0.45/3.4 ± 0.55		
COC(=O)c1cc(-c2ccc(NC(C)=O)cc2)nc2ccccc12 [CB-12]	> 100000 nM	prevent RAGE ligand CML AGE-mediated ingrowth (migration)	prevent RAGE ligand CML AGE-mediated ingrowth (migration)	2.4 ± 0.55/3.4 ± 0.55	statistically significant reduction in inflammation score	
Cc1c(Cl)cccc1NC(=O)CNC(=O)c1ccccc1F [CB-13]	123 ± 1 nM	prevent RAGE ligand CML AGE-mediated ingrowth (migration)	prevent RAGE ligand CML AGE-mediated ingrowth (migration)	3.4 ± 0.55/3.4 ± 0.55		
Oc1ccc(NCc2ccc(Br)cc2)cc1 [CB-14]	1.4 ± 0.3 nM	prevent RAGE ligand CML AGE-mediated ingrowth (migration)	prevent RAGE ligand CML AGE-mediated ingrowth (migration)	3.2 ± 0.45/3.4 ± 0.55		
CC(=O)Nc1ccc(C(=O)Nc2nccs2)cc1 [CD-1]						31%
OC(Cn1ccnc1)Cn1c2ccccc2c2ccccc21 (stereo not shown) [CD-4]	75 nM					
Cn1c(=O)n(CC(O)Cn2c3ccccc3c3ccccc32)c2ccccc21 (stereo not shown) [CD-6]	4 nM					
CN(Cc1ccccc1)CC(O)Cn1cnc2ccccc21 (stereo not shown) [CD-7]						31%
N#Cc1ccc(OCC(O)Cn2cnc3ccccc32)cc1 (stereo not shown) [CD-8]						27%
O=C(O)COc1ccc2c(C(F)(F)F)cc(=O)oc2c1 [CD-12]						11%
OC(COCc1ccccc1)Cn1cnc2ccccc21 (stereo not shown) [CD-14]						26%
OC(COc1cccc2ccccc12)Cn1cnc2ccccc21 (stereo not shown) [CD-16]						69%
OC(CN(c1ccccc1)c1ccccc1)Cn1cnc2ccccc21 (stereo not shown) [CD-18]						45%
O=C(O)c1ccccc1OCC(O)Cn1cnc2ccccc21 (stereo not shown) [CD-19]						24%
CC1=NN(c2nc3ccccc3s2)C(=O)C1CCC(C)C (stereo not shown) [CD-20]						48%
COc1ccccc1-c1cc(C(F)(F)F)nc(NC2CCCCC2)n1 [CD-21]						18%
OC(COc1ccccc1)Cn1cnc2ccccc21 (stereo not shown) [CD-28]						37%
Cc1nccn1CC(O)Cn1c2ccccc2c2ccccc21 (stereo not shown) [CD-29]	78 nM					
COc1ccccc1-c1cc(C(F)(F)F)nc(N2CCN(c3ccccc3OC)CC2)n1 [CD-42]						42%
